Results published in patent publication US7745441B1, “Urokinase inhibitors” (Wilex AG, priority 1998, dated 2010).
Counter-ions that a name gives are not always drawn.

target: T1, sc-urokinase (Homo sapiens, UniProt P00749); experiment: Inhibition of urokinase (chromogenic substrate, Dixon Ki); type: biochemical; conditions: Tris buffer pH 8.0, 25° C., substrate Pefachrome UK or Bz-βAla-Gly-Arg-pNA; mean of at least 3 determinations
T1 construct: purchased Ribosepharm GmbH, Haan, Germany
Description: The Ki values were determined according to Dixon by linear regression using a computer program.

Ki [nM]	Structure (SMILES)
540	CCOC(=O)N1CCN(C(=O)C(Cc2cccc(C(=N)N)c2)NS(=O)(=O)c2c(C(C)C)cc(C(C)C)cc2C(C)C)CC1 (centres unmarked)
720	CCOC(=O)C1CCN(C(=O)C(Cc2cccc(C(=N)N)c2)NS(=O)(=O)c2c(C(C)C)cc(C(C)C)cc2C(C)C)CC1 (centres unmarked)
790	CC(C)OC(=O)N1CCN(C(=O)C(Cc2cccc(C(=N)N)c2)NS(=O)(=O)c2c(C(C)C)cc(C(C)C)cc2C(C)C)CC1 (centres unmarked)
1200	CC(C)c1cc(C(C)C)c(S(=O)(=O)NC(Cc2cccc(C(=N)N)c2)C(=O)N2CCCC(C(=O)OCc3ccccc3)C2)c(C(C)C)c1 (centres unmarked)
1500	CC(C)c1cc(C(C)C)c(S(=O)(=O)NC(Cc2cccc(C(=N)N)c2)C(=O)N2CCCC(C(=O)NCc3ccccc3)C2)c(C(C)C)c1 (centres unmarked)
1900	CC(C)c1cc(C(C)C)c(S(=O)(=O)NC(Cc2cccc(C(=N)N)c2)C(=O)N2CCN(C(=O)OCc3ccccc3)CC2)c(C(C)C)c1 (centres unmarked)
2200	CC1CCN(C(=O)C(Cc2cccc(C(=N)N)c2)NS(=O)(=O)c2c(C(C)C)cc(C(C)C)cc2C(C)C)CC1 (centres unmarked)
2700	CC(C)c1cc(C(C)C)c(S(=O)(=O)NC(Cc2cccc(C(=N)N)c2)C(=O)N2CCN(C(=O)N(C)C)CC2)c(C(C)C)c1 (centres unmarked)
3300	CCOC(=O)C1CCN(C(=O)[C@H](Cc2cccc(C(=N)N)c2)NS(=O)(=O)c2ccc3ccccc3c2)CC1
3500	CC(=O)N1CCN(C(=O)C(Cc2cccc(C(=N)N)c2)NS(=O)(=O)c2c(C(C)C)cc(C(C)C)cc2C(C)C)CC1 (centres unmarked)
3900	N=C(N)c1cccc(C[C@H](NS(=O)(=O)c2ccc3ccccc3c2)C(=O)N2CCC(C(=O)OCc3ccccc3)CC2)c1
4200	CC(C)NC(=O)C1CCN(C(=O)C(Cc2cccc(C(=N)N)c2)NS(=O)(=O)c2c(C(C)C)cc(C(C)C)cc2C(C)C)CC1 (centres unmarked)
4400	CNC(=O)C1CCN(C(=O)C(Cc2cccc(C(=N)N)c2)NS(=O)(=O)c2c(C(C)C)cc(C(C)C)cc2C(C)C)CC1 (centres unmarked)
490	CCOC(=O)N1CCN(C(=O)[C@H](Cc2cccc(C(=N)N)c2)NS(=O)(=O)c2c(C(C)C)cc(C(C)C)cc2C(C)C)CC1 [N-α-2,4,6-Triisopropylphenylsulfonyl-(L)-3-amidinophenylalanine-4-ethoxycarbonyl-piperazide hydrochloride]
